Measurements: US7652153B2, “Caspase inhibitors and uses thereof” (Vertex Pharmaceuticals Incorporated, priority 2004, dated 2010)

Tests used:
caspase-1 = molecular target: T1, caspase-1 (Homo sapiens, UniProt P29466); experiment: Caspase-1 enzyme inhibition (Ki, method of Margolin et al.); assay type: biochemical; conditions: Suc-YVAD-pNA substrate 80 μM, 37° C., pH 7.5; read-out: Ki C1
T1 sequence (P29466 120-297 limits assumed): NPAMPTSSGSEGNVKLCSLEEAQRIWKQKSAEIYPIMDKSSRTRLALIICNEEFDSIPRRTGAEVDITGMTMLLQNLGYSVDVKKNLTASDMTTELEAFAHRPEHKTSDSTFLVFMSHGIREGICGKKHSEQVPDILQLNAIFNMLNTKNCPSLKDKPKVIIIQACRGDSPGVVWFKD
T1 sequence (P29466 317-404 limits assumed): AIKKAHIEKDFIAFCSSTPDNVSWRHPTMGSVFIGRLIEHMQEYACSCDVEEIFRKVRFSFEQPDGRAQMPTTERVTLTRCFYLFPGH
Protocol: (§1) Compounds of this invention may be tested using the methods described below.
(§2) In Vitro Assays Enzyme Inhibition
(§3) Ki values for test compounds with caspase-1 and caspase-8 were obtained by the method of Margolin et al. (J. Biol. Chem., 272 pp. 7223-7228 (1997)). Other caspases may be assayed similarly (see, e.g., WO 99/47545). Assays were performed in 10 mM Tris (Sigma Corp, St Louis Mo.) pH 7.5, 1 mM Dithiothreitol (DTT, Research Organic INC, Cleveland, Ohio) and 0.1% CHAPS (Pierce, Rockford Ill.) at 37° C. For caspase-3, a solution of 8% glycerol was added to the assay buffer to improve enzyme stability. A 65 μL aliquot of the assay buffer and 5 μL aliquot of the appropriate dilutions of inhibitor in DMSO where pipetted into a 96 well plate, treated with 10 μL of caspase, then diluted in assay buffer (0.5-40 nM active protein by active site titration). A control containing DMSO but no compound was included for each determination. The plates were then incubated for 15 minutes at 37° C., before addition of the appropriate substrate (20 μL, final concentration 1-4×KM, final assay volume 100 μL) to initiate the reaction. Reaction rates were measured at 37° C. either by following the time dependant increase in absorbance at 405 nm (for the pNA substrates) or in fluorescence (Ex 390, Em 460) (for the AMC substrates). The rates obtained were plotted against inhibitor concentration and the data fit to the Morrison tight-binding equation for competitive inhibitors (Morrison, J. F., Biochem. Biophys. Acta, 185 pp. 269-286 (1969)). The substrates used for the individual assays were as follows:
Caspase-1 Suc-YVAD-pNA (Bachem, King of Prussia, Pa.) (final concentration in the assay 80 μM);

caspase-8 = caspase-8 (Homo sapiens, UniProt Q14790); experiment: Caspase-8 enzyme inhibition (Ki, method of Margolin et al.); assay type: biochemical; conditions: Ac-DEVD-pNA substrate 80 μM, 37° C., pH 7.5; read-out: Ki C8
Protocol: as §1, §2, §3
Caspase-8 Ac-DEVD-pNA (Bachem, King of Prussia, Pa.) (final concentration in assay 80 μM).

Chain of caspase-8 (Q14790 217-374 limits assumed, species assumed): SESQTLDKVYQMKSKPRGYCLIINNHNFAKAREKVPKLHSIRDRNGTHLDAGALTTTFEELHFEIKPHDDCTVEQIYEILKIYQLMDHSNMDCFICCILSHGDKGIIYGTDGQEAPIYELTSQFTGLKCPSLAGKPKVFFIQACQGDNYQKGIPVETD
Chain of caspase-8 (Q14790 385-479 limits assumed, species assumed): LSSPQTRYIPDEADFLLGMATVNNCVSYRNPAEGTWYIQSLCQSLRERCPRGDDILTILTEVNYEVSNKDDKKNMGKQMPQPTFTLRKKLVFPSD

SMILES | Ki (caspase-1) | Ki (caspase-8)
CC(C)(C)[C@H](NC(=O)c1cccc(OC2CC2)c1Cl)C(=O)N1CCC[C@H]1C(=O)N[C@H](C=O)CC(=O)O [II-33, (S,S,S)-(3S)-({1-[(2S)-(2-Chloro-3-cyclopropyloxy-benzoylamino)-3,3-dimethyl-butyryl]-pyrrolidine-(2S)-carbonyl}-amino)-4-oxo-butyric acid] | < 10 nM | < 10 nM
CC(C)[C@H](NC(=O)c1ccnc(Cl)c1Cl)C(=O)N1CCC[C@H]1C(=O)N[C@H](C=O)CC(=O)O [II-18, (S,S,S)-(3S)-[(1-{(2S)-[(2,3-Dichloro-pyridine-4-carbonyl)-amino]-3-methyl-butyryl}-pyrrolidine-(2S)-carbonyl)-amino]-4-oxo-butyric acid] | < 10 nM | 10 to 20 nM
Cc1cccc(C)c1C(=O)N[C@H](C(=O)N1CCC[C@H]1C(=O)N[C@H](C=O)CC(=O)O)C(C)C [II-14, (S,S,S)-(3S)-({1-[(2S)-(2,6-Methyl-benzoylamino)-3-methyl-butyryl]-pyrrolidine-(2S)-carbonyl}-amino)-4-oxo-butyric acid] | 10 to 20 nM | < 10 nM
COc1cccc(C(=O)N[C@H](C(=O)N2C3CC[C@@H](C3)[C@H]2C(=O)N[C@H](C=O)CC(=O)O)C(C)(C)C)c1F (stereo in doubt) [II-60, (3S)-({2-[(2S)-(2-Fluoro-3-methoxy-benzoylamino)-3,3-dimethyl-butyryl]-2-(1S,4R)-aza-bicyclo[2.2.1]heptane-(3S)-carbonyl}-amino)-4-oxo-butyric acid] | < 10 nM | < 10 nM
CC(=O)Nc1ccc(C(=O)N[C@H](C(=O)N2CCC[C@H]2C(=O)N[C@H](C=O)CC(=O)O)C2CCCCC2)c(Cl)c1 [II-50, (S,S,S)-(3S)-({1-[(2S)-(2-chloro-4-acetamido-benzoylamino)-3-cyclohexyl]-pyrrolidine-(2S)-carbonyl}-amino)-4-oxo-butyric acid] | < 10 nM | 21 to 30 nM
COc1cccc(C(=O)N[C@H](C(=O)N2CCC[C@H]2C(=O)N[C@H](C=O)CC(=O)O)C(C)(C)C)c1C [II-20, (S,S,S)-(3S)-({1-[(2S)-(3-Methoxy-2-methyl-benzoylamino)-3,3-dimethyl-butyryl]-pyrrolidine-(2S)-carbonyl}-amino)-4-oxo-butyric acid] | < 10 nM | < 10 nM
CC(C)[C@H](NC(=O)c1c(Cl)cncc1Cl)C(=O)N1CCC[C@H]1C(=O)N[C@H](C=O)CC(=O)O [II-19, (S,S,S)-(3S)-[(1-{(2S)-[(3,5-Dichloro-pyridine-4-carbonyl)-amino]-3-methyl-butyryl}-pyrrolidine-(2S)-carbonyl)-amino]-4-oxo-butyric acid] | 10 to 20 nM | < 10 nM
Cc1c(N)cccc1C(=O)N[C@H](C(=O)N1CCC[C@H]1C(=O)N[C@H](C=O)CC(=O)O)C(C)C [II-7, (S,S,S)-(3S)-({1-[(2S)-(3-Amino-2-methyl-benzoylamino)-3-methyl-butyryl]-pyrrolidine-(2S)-carbonyl}-amino)-4-oxo-butyric acid] | < 10 nM | 10 to 20 nM
Cc1ccncc1C(=O)N[C@H](C(=O)N1CCC[C@H]1C(=O)N[C@H](C=O)CC(=O)O)C(C)C [II-16, (S,S,S)-(3S)-[(1-{3-Methyl-(2S)-[(4-methyl-pyridine-3-carbonyl)-amino]-butyryl}-pyrrolidine-(2S)-carbonyl)-amino]-4-oxo-butyric acid] | < 10 nM | 21 to 30 nM

Further lines, results first:

Ki (caspase-1) | Ki (caspase-8) | SMILES
< 10 nM | 10 to 20 nM | COc1ccc(C(=O)N[C@H](C(=O)N2CCC[C@H]2C(=O)N[C@H](C=O)CC(=O)O)C(C)C)c(Cl)c1 [II-37, (S,S,S)-(3S)-({1-[(2S)-(2-chloro-4-methoxy-benzoylamino)-3-methyl-butyryl]-pyrrolidine-(2S)-carbonyl}-amino)-4-oxo-butyric acid]
< 10 nM | 21 to 30 nM | O=C[C@H](CC(=O)O)NC(=O)[C@@H]1CCCN1C(=O)[C@H](CC(F)(F)F)NC(=O)c1ccccc1Cl [II-24, (S,S,S)-(3S)-({1-[(2S)-(2-Chloro-benzoylamino)-4,4,4-trifluoro-butyryl]-pyrrolidine-(2S)-carbonyl}-amino)-4-oxo-butyric acid]
< 10 nM | 21 to 30 nM | CC(C)[C@H](NC(=O)c1ccc(Cl)cc1Cl)C(=O)N1CCC[C@H]1C(=O)N[C@H](C=O)CC(=O)O [II-11, (S,S,S)-(3S)-({1-[(2S)-(2,4-Dichloro-benzoylamino)-3-methyl-butyryl]-pyrrolidine-(2S)-carbonyl}-amino)-4-oxo-butyric acid]
< 10 nM | 21 to 30 nM | O=C[C@H](CC(=O)O)NC(=O)[C@@H]1CCCN1C(=O)[C@H](Cc1cscn1)NC(=O)c1ccccc1Cl [II-25, (S,S,S)-(3S)-({1-[(2S)-(2-Chloro-benzoylamino)-3-thiazol-4-yl-propionyl]-pyrrolidine-(2S)-carbonyl}-amino)-4-oxo-butyric acid]
< 10 nM | < 10 nM | CC(C)[C@H](NC(=O)c1ccccc1C(F)(F)F)C(=O)N1CCC[C@H]1C(=O)N[C@H](C=O)CC(=O)O [II-27, (S,S,S)-(3S)-({1-[3-Methyl-(2S)-(2-trifluoromethyl-benzoylamino)-butyryl]-pyrrolidine-(2S)-carbonyl}-amino)-4-oxo-butyric acid]
< 10 nM | < 10 nM | COc1cccc(C(=O)N[C@H](C(=O)N2CCC[C@H]2C(=O)N[C@H](C=O)CC(=O)O)C(C)(C)C)c1F [II-31, (S,S,S)-(3S)-({1-[(2S)-(2-Fluoro-3-methoxy-benzoylamino)-3,3-dimethyl-butyryl]-pyrrolidine-(2S)-carbonyl}-amino)-4-oxo-butyric acid]
< 10 nM | < 10 nM | CC(C)(C)[C@H](NC(=O)c1cccc(O)c1Cl)C(=O)N1CCC[C@H]1C(=O)N[C@H](C=O)CC(=O)O [II-39, (S,S,S)-(3S)-({1-[(2S)-(2-Chloro-3-hydroxy-benzoylamino)-3,3-dimethyl-butyryl]-pyrrolidine-(2S)-carbonyl}-amino)-4-oxo-butyric acid]
< 10 nM | < 10 nM | Cc1cccc(C(=O)N[C@H](C(=O)N2CCC[C@H]2C(=O)N[C@H](C=O)CC(=O)O)C(C)(C)C)c1Cl [II-34, (S,S,S)-(3S)-({1-[(2S)-(2-Chloro-3-methyl-benzoylamino)-3,3-dimethyl-butyryl]-pyrrolidine-(2S)-carbonyl}-amino)-4-oxo-butyric acid]
< 10 nM | 21 to 30 nM | COc1cccc(C(=O)N[C@@H](CC(F)(F)F)C(=O)N2CCC[C@H]2C(=O)N[C@H](C=O)CC(=O)O)c1C [II-21, (S,S,S)-4-Oxo-(3S)-({1-[4,4,4-trifluoro-(2S)-(2-methyl-3-methoxy-benzoylamino)-butyryl]-pyrrolidine-(2S)-carbonyl}-amino)-butyric acid]
< 10 nM | 10 to 20 nM | CC(C)[C@H](NC(=O)c1cccc(Cl)c1Cl)C(=O)N1CCC[C@H]1C(=O)N[C@H](C=O)CC(=O)O [II-8, (S,S,S)-(3S)-({1-[(2S)-(2,3-Dichloro-benzoylamino)-3-methyl-butyryl]-pyrrolidine-(2S)-carbonyl}-amino)-4-oxo-butyric acid]
< 10 nM | < 10 nM | CC(C)(C)[C@H](NC(=O)c1ccc(O)cc1Cl)C(=O)N1CCC[C@H]1C(=O)N[C@H](C=O)CC(=O)O [II-47, (S,S,S)-(3S)-({1-[(2S)-(2-chloro-4-hydroxy-benzoylamino)-3,3-dimethyl-butyryl]-pyrrolidine-(2S)-carbonyl}-amino)-4-oxo-butyric acid]
< 10 nM | < 10 nM | Cc1ccccc1C(=O)N[C@H](C(=O)N1CCC[C@H]1C(=O)N[C@H](C=O)CC(=O)O)C(C)(C)C [II-26, (S,S,S)-(3S)-({1-[3,3-Dimethyl-(2S)-(2-methyl-benzoylamino)-butyryl]-pyrrolidine-(2S)-carbonyl}-amino)-4-oxo-butyric acid]
< 10 nM | < 10 nM | CC(C)(C)[C@H](NC(=O)c1cccc(Oc2ccccc2)c1Cl)C(=O)N1CCC[C@H]1C(=O)N[C@H](C=O)CC(=O)O [II-52, (S,S,S)-(3S)-({1-[(2S)-(2-chloro-3-phenoxy-benzoylamino)-3,3-dimethyl-butyryl]-pyrrolidine-(2S)-carbonyl}-amino)-4-oxo-butyric acid]
